Data: patent publication US10538555B2, “Macrocyclic inhibitors of the PD-1/PD-L1 and CD80(B7-1)/PD-L1 protein/protein interactions” (BRISTOL-MYERS SQUIBB COMPANY, priority 2014, dated 2020)
Where a SMILES comes first, the peptide text is derived from it. Bridges are numbered along the chain shown (N, C = ends). [ ]: non-standard residue; d: D form. Trp(1-CH2COOH) = N[C@@H](Cc1cn(CC(=O)O)c2ccccc12)C(=O)O; Morpholine(3S-CO,6,6-Me2) = CC1(C)CN[C@H](C(=O)O)CO1; Trp(2-Me) = Cc1[nH]c2ccccc2c1C[C@H](N)C(=O)O; Morpholine(3S-CO) = O=C(O)[C@@H]1COCCN1; 1Nal = N[C@@H](Cc1cccc2ccccc12)C(=O)O; Pro(4R-Me) = C[C@H]1CN[C@H](C(=O)O)C1; Hyp = O=C(O)[C@@H]1C[C@@H](O)CN1; NMeNle = CCCC[C@H](NC)C(=O)O; Pip = O=C(O)[C@@H]1CCCCN1; dPip = O=C(O)[C@H]1CCCCN1; NMeA = CN[C@@H](C)C(=O)O; Dab = NCC[C@H](N)C(=O)O; Dap = NC[C@H](N)C(=O)O

The compounds below were run against T1, Human PD-L1/PD-1 (Homo sapiens, UniProt Q9NZQ7) (assay: HTRF Human PD-L1/PD-1 binding assay (PD-1-Ig/PD-L1-His)). Conditions: PD-L1-His 10 nM, PD-1-Ig 20 nM; class symbol; read-out: HTRF Human PD-L1/PD-1 Binding Assay IC50 Range.
T1 construct: TVMV protease cleavage site (C); made in house; host or cells: HEK293T cells
T1 sequence (Q9NZQ7 with tags, fused parts or gaps): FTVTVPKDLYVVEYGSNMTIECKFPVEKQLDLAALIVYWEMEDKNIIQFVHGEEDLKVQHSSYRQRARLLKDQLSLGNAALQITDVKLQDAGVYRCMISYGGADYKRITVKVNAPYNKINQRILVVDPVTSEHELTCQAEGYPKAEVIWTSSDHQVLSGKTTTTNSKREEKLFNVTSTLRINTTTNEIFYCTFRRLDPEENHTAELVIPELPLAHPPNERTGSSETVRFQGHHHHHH
Excerpt: Methods for Testing the Ability of Macrocyclic Peptides to Compete for the Binding of PD-1 to PD-L1 Using Homogenous Time-Resolved Fluorescence (HTRF) Binding Assays
The ability of the macrocyclic peptides of the present disclosure to bind to PD-L1 was investigated using a PD-1/PD-L1 Homogenous Time-Resolved Fluorescence (HTRF) binding assay.
Homogenous Time-Resolved Fluorescence (HTRF) Assays of Binding of Soluble PD-1 to Soluble PD-L1. Soluble PD-1 and soluble PD-L1 refers to proteins with carboxyl-end truncations that remove the transmembrane-spanning regions and are fused to heterologous sequences, specifically the Fc portion of the human immunoglobuling G sequence (Ig) or the hexahistidine epitope tag (His). All binding studies were performed in an HTRF assay buffer consisting of dPBS supplemented with 0.1% (w/v) bovine serum albumin and 0.05% (v/v) Tween-20. For the PD-1-Ig/PD-L1-His binding assay, inhibitors were pre-incubated with PD-L1-His (10 nM final) for 15 m in 4 μl of assay buffer, followed by addition of PD-1-Ig (20 nM final) in 1 μl of assay buffer and further incubation for 15 m. PD-L1 fusion proteins from either human, cynomolgus macaques, or mouse were used. HTRF detection was achieved using europium crypate-labeled anti-Ig monoclonal antibody (1 nM final) and allophycocyanin (APC) labeled anti-His monoclonal antibody (20 nM final). Antibodies were diluted in HTRF detection buffer and 5 μl was dispensed on top of binding reaction. The reaction was allowed to equilibrate for 30 minutes and signal (665 nm/620 nm ratio) was obtained using an EnVision fluorometer. Additional binding assays were established between PD-1-Ig/PD-L2-His (20 and 5 nM, respectively), CD80-His/PD-L1-Ig (100 and 10 nM, respectively) and CD80-His/CTLA4-Ig (10 and 5 nM, respectively). Competition studies between biotinylated Compound No. 71 and human PD-L1-His were performed as follows. Macrocyclic peptide inhibitors were pre-incubated with PD-L1-His (10 nM final) for 60 minutes in 4 μl of assay buffer followed by addition of biotinylated Compound No. 71 (0.5 nM final) in 1 μl of assay buffer. Binding was allowed to equilibrate for 30 minutes followed by addition of europium crypated labeled Streptavidin (2.5 pM final) and APC-labeled anti-His (20 nM final) in 5 μl of HTRF buffer. The reaction was allowed to equilibrate for 30 m and signal (665 nm/620 nm ratio) was obtained using an EnVision fluorometer.
Recombinant Proteins. Carboxyl-truncated human PD-1 (amino acids 25-167) with a C-terminal human Ig epitope tag [hPD-1 (25-167)-3S-IG] and human PD-L1 (amino acids 18-239) with a C-terminal His epitope tag [hPD-L1([…])-tobacco vein mottling virus protease cleavage site (TVMV)-His] were expressed in HEK293T cells and purified sequentially by rProteinA affinity chromatography and size exclusion chromatography.

Structure (SMILES)	IC50 [nM]
CCCC[C@H]1C(=O)N(C)[C@@H](CCCC)C(=O)N[C@@H](C)C(=O)N[C@H](C(=O)NCC(N)=O)CSCC(=O)N[C@@H](Cc2ccc(O)cc2)C(=O)N2CCCC[C@H]2C(=O)N[C@@H](CC(N)=O)C(=O)N2CCC[C@H]2C(=O)N[C@@H](Cc2cnc[nH]2)C(=O)N[C@@H](CCC(N)=O)C(=O)N2CCOC[C@H]2C(=O)N[C@@H](Cc2c[nH]c3ccccc23)C(=O)N[C@@H](CO)C(=O)N[C@@H](Cc2c[nH]c3ccccc23)C(=O)N1C [Example 1277]	10 to 99.9
CCCC[C@H]1C(=O)N(C)[C@@H](CCCC)C(=O)N[C@@H](C)C(=O)N[C@H](C(=O)NCC(N)=O)CSCC(=O)N[C@@H](Cc2ccc(O)cc2)C(=O)N(C)[C@@H](C)C(=O)N[C@@H](CC(N)=O)C(=O)N2CCC[C@H]2C(=O)N[C@@H](Cc2cnc[nH]2)C(=O)N[C@@H](CCC(N)=O)C(=O)N2CCNC[C@H]2C(=O)N[C@@H](Cc2c[nH]c3ccccc23)C(=O)N[C@@H](CO)C(=O)N[C@@H](Cc2c[nH]c3ccccc23)C(=O)N1C [Example 1278]	10 to 99.9
CCCC[C@H]1C(=O)N(C)[C@@H](CCCC)C(=O)N[C@@H](C)C(=O)N[C@H](C(=O)NCC(N)=O)CSCC(=O)N[C@@H](Cc2ccc(O)cc2)C(=O)N(C)[C@@H](C)C(=O)N[C@@H](CC(N)=O)C(=O)N2CCC[C@H]2C(=O)N[C@@H](Cc2cnc[nH]2)C(=O)N[C@@H](CCC(N)=O)C(=O)N2CCOC[C@H]2C(=O)N[C@@H](Cc2c[nH]c3ccccc23)C(=O)N[C@@H](CO)C(=O)N[C@@H](Cc2c[nH]c3ccccc23)C(=O)N1C [Example 1279]	10 to 99.9
CCCC[C@H]1C(=O)N(C)[C@@H](CCCC)C(=O)N[C@@H](C)C(=O)N[C@H](C(=O)NCC(N)=O)CSCC(=O)N[C@@H](Cc2ccc(O)cc2)C(=O)N(C)[C@@H](C)C(=O)N[C@@H](CC(N)=O)C(=O)N2CCOC[C@H]2C(=O)N[C@@H](Cc2cnc[nH]2)C(=O)N[C@@H](CCC(N)=O)C(=O)N2C[C@H](O)C[C@H]2C(=O)N[C@@H](Cc2c[nH]c3ccccc23)C(=O)N[C@@H](CO)C(=O)N[C@@H](Cc2c[nH]c3ccccc23)C(=O)N1C [Example 1280] ({CH2CO}-Y[NMeA]N[Morpholine(3S-CO)]HQ[Hyp]WSW[NMeNle][NMeNle]ACG-NH2; thioether N-14)	10 to 99.9
CCCC[C@H]1C(=O)N(C)[C@@H](CCCC)C(=O)N[C@@H](C)C(=O)N[C@H](C(=O)NCC(N)=O)CSCC(=O)N[C@@H](Cc2ccc(O)cc2)C(=O)N2CC(C)(C)OC[C@H]2C(=O)N[C@@H](CC(N)=O)C(=O)N2CCC[C@H]2C(=O)N[C@@H](CN)C(=O)N[C@@H](CCC(N)=O)C(=O)N2C[C@H](O)C[C@H]2C(=O)N[C@@H](Cc2c[nH]c3ccccc23)C(=O)N[C@@H](CO)C(=O)N[C@@H](Cc2c[nH]c3ccccc23)C(=O)N1C [Example 1281] ({CH2CO}-Y[Morpholine(3S-CO,6,6-Me2)]NP[Dap]Q[Hyp]WSW[NMeNle][NMeNle]ACG-NH2; thioether N-14)	1 to 9.9
CCCC[C@H]1C(=O)N(C)[C@@H](CCCC)C(=O)N[C@@H](CCC(=O)O)C(=O)N[C@H](C(=O)NCC(N)=O)CSCC(=O)N[C@@H](Cc2ccc(O)cc2)C(=O)N2C[C@H](O)C[C@H]2C(=O)N[C@@H](CC(N)=O)C(=O)N2CCC[C@H]2C(=O)N[C@@H](Cc2cnc[nH]2)C(=O)N[C@@H](CCC(=O)O)C(=O)N2C[C@H](O)C[C@H]2C(=O)N[C@@H](Cc2c[nH]c3ccccc23)C(=O)N[C@@H](CO)C(=O)N[C@@H](Cc2c[nH]c3ccccc23)C(=O)N1C [Example 1283] ({CH2CO}-Y[Hyp]NPHE[Hyp]WSW[NMeNle][NMeNle]ECG-NH2; thioether N-14)	10 to 99.9
CCCC[C@H]1C(=O)N(C)[C@@H](CCCC)C(=O)N[C@@H](C)C(=O)N[C@H](C(=O)NCC(N)=O)CSCC(=O)N[C@@H](Cc2ccc(O)cc2)C(=O)N(C)[C@@H](C)C(=O)N[C@@H](CC(N)=O)C(=O)N2CCC[C@H]2C(=O)N[C@@H](Cc2cnc[nH]2)C(=O)N[C@@H](CCC(N)=O)C(=O)N2C[C@H](O)C[C@H]2C(=O)N[C@@H](Cc2c[nH]c3ccccc23)C(=O)N[C@@H](CO)C(=O)N[C@@H](Cc2c(C)[nH]c3ccccc23)C(=O)N1C [Example 1285] ({CH2CO}-Y[NMeA]NPHQ[Hyp]WS[Trp(2-Me)][NMeNle][NMeNle]ACG-NH2; thioether N-14)	1 to 9.9
CCCC[C@H]1C(=O)N(C)[C@@H](CCCC)C(=O)N[C@@H](C)C(=O)N[C@H](C(=O)NCC(N)=O)CSCC(=O)N[C@@H](Cc2ccc(O)cc2)C(=O)N(C)[C@@H](C)C(=O)N[C@@H](CC(N)=O)C(=O)N2CCC[C@H]2C(=O)N[C@@H](Cc2cnc[nH]2)C(=O)N[C@@H](CCC(N)=O)C(=O)N2C[C@H](O)C[C@H]2C(=O)N[C@@H](Cc2c[nH]c3ccccc23)C(=O)N[C@@H](CO)C(=O)N[C@@H](Cc2cccc3ccccc23)C(=O)N1C [Example 1289] ({CH2CO}-Y[NMeA]NPHQ[Hyp]WS[1Nal][NMeNle][NMeNle]ACG-NH2; thioether N-14)	1 to 9.9
CCCC[C@H]1C(=O)N(C)[C@@H](CCCC)C(=O)N[C@@H](CN)C(=O)N[C@H](C(=O)NCC(N)=O)CSCC(=O)N[C@@H](Cc2ccc(O)cc2)C(=O)N2CCCC[C@H]2C(=O)N[C@@H](CC(N)=O)C(=O)N2CCC[C@H]2C(=O)N[C@@H](CN)C(=O)N[C@@H](CC(C)C)C(=O)N2C[C@H](C)C[C@H]2C(=O)N[C@@H](Cc2c[nH]c3ccccc23)C(=O)N[C@@H](CCN)C(=O)N[C@@H](Cc2cn(CC(=O)O)c3ccccc23)C(=O)N1C [Example 1291] ({CH2CO}-Y[Pip]NP[Dap]L[Pro(4R-Me)]W[Dab][Trp(1-CH2COOH)][NMeNle][NMeNle][Dap]CG-NH2; thioether N-14)	1 to 9.9

The remaining lines, values ahead:

IC50 [nM]	Structure (SMILES)
1 to 9.9	CCCC[C@H]1C(=O)N(C)[C@@H](CCCC)C(=O)N[C@@H](C)C(=O)N[C@H](C(=O)NCC(N)=O)CSCC(=O)N[C@@H](Cc2ccc(O)cc2)C(=O)N2CCNC[C@H]2C(=O)N[C@@H](CC(N)=O)C(=O)N2CCC[C@H]2C(=O)N[C@@H](Cc2cnc[nH]2)C(=O)N[C@@H](CCC(N)=O)C(=O)N2C[C@H](O)C[C@H]2C(=O)N[C@@H](Cc2c[nH]c3ccccc23)C(=O)N[C@@H](CO)C(=O)N[C@@H](Cc2c[nH]c3ccccc23)C(=O)N1C [Example 1275]
10 to 99.9	CCCC[C@H]1C(=O)N(C)[C@@H](CCCC)C(=O)N[C@@H](CCC(=O)O)C(=O)N[C@H](C(=O)NCC(N)=O)CSCC(=O)N[C@@H](Cc2ccc(O)cc2)C(=O)N2CCCC[C@@H]2C(=O)N[C@@H](CC(N)=O)C(=O)N2CCC[C@H]2C(=O)N[C@@H](CN)C(=O)N[C@@H](CCC(=O)O)C(=O)N2C[C@H](O)C[C@H]2C(=O)N[C@@H](Cc2c[nH]c3ccccc23)C(=O)N[C@@H](CO)C(=O)N[C@@H](Cc2cn(CC(=O)O)c3ccccc23)C(=O)N1C [Example 1290] ({CH2CO}-Y[dPip]NP[Dap]E[Hyp]WS[Trp(1-CH2COOH)][NMeNle][NMeNle]ECG-NH2; thioether N-14)
10 to 99.9	CCCC[C@H]1C(=O)N(C)[C@@H](CCCC)C(=O)N[C@@H](C)C(=O)N[C@H](C(=O)NCC(N)=O)CSCC(=O)N[C@@H](Cc2ccc(O)cc2)C(=O)N2CCCC[C@H]2C(=O)N[C@@H](CC(=O)O)C(=O)N2CCC[C@H]2C(=O)N[C@@H](Cc2cnc[nH]2)C(=O)N[C@@H](CCC(N)=O)C(=O)N2C[C@H](O)C[C@H]2C(=O)N[C@@H](Cc2c[nH]c3ccccc23)C(=O)N[C@@H](CO)C(=O)N[C@@H](Cc2cn(CC(=O)O)c3ccccc23)C(=O)N1C [Example 1292] ({CH2CO}-Y[Pip]DPHQ[Hyp]WS[Trp(1-CH2COOH)][NMeNle][NMeNle]ACG-NH2; thioether N-14)

Same assay, conditions: PD-L1-His 10 nM, PD-1-Ig 20 nM; read-out: HTRF Human PD-L1/PD-1 Binding Assay IC50

IC50 [nM]	Structure (SMILES)
468	CCCC[C@H]1C(=O)N(C)[C@@H](CCCC)C(=O)N[C@@H](C)C(=O)N[C@H](C(=O)NCC(N)=O)CSCC(=O)N[C@@H](Cc2ccc(O)cc2)C(=O)N2CCCC[C@H]2C(=O)N[C@@H](CC(N)=O)C(=O)N2CCC[C@H]2C(=O)N[C@@H](Cc2cnc[nH]2)C(=O)N[C@@H](CCC(N)=O)C(=O)N2CCNC[C@H]2C(=O)N[C@@H](Cc2c[nH]c3ccccc23)C(=O)N[C@@H](CO)C(=O)N[C@@H](Cc2c[nH]c3ccccc23)C(=O)N1C [Example 1276]
